{
  "source": "patent US20190062709A1",
  "about": "“METHODS AND COMPOSITIONS FOR MAINTENANCE OF HEMATOPOIETIC STEM CELLS WITH PRESERVATION OF SELF-RENEWAL CAPACITY” (The Trustees of Columbia University in the City of New York, priority 2017, published 2019)",
  "key": {"HSCs [1]": {"test_system": "HSCs", "assay": "Calcium concentration of HSCs treated with metabolic inhibitors", "type": "cell-based, mouse"}, "[2]": {"conditions": "37° C., assumed based on previous studies; read-out: Indo-1 dissociation constant (Kd); cited from earlier work"}, "HSCs [3]": {"test_system": "HSCs", "assay": "Competitive transplantation of cultured HSCs into irradiated recipient mice (donor chimerism)", "type": "in vivo, mouse", "conditions": "10% of culture transplanted", "experimental": "Long term LT-HSCs cultures were carried out using Ca^2+-free DMEM (U.S. Biologicals) reconstituted with 4.5 g/L glucose and 1.1 g/L sodium bicarbonate at pH 7.4. Complete media was prepared with Ca^2+-free DMEM supplemented with 1× StemPro34 SFM (Invitrogen), 10 mM HEPES, 200 ng/mL of recombinant m-SCF and 30 ng/mL m-TPO (Peptrotech, Rocky Hill, N.J.). Media of various calcium concentrations was prepared as serial dilutions from stock complete media at 2 mM. Cultures were initiated with 3000-4000 purified HSCs (LSK+CD48−F1t3−CD150+) and cultured in round bottom 96 well plates with 150 uL of media in 5% O2 at 37° C. Half of the media volume was changed every 3 days and split 1:2 every 7 days. Cultures were counted at the time of phenotypic flow cytometric percentage analysis to determine phenotypic HSC counts at the end of culture. Based on calculations, HSC yields were expressed as phenotypic HSC at the end of culture divided by phenotypic HSC count at the start of culture.\nAll transplant experiments were initiated with LT-HSC cultures consisting of CD45.1 donor HSCs. […]\nTo test HSC function, irradiated recipient mice were competitively transplanted with 10% of the cultures, either at initiation or after 2 weeks of culture, and analyzed 15 weeks after transplantation. […] Donor contribution correlated with calculated phenotypic HSC cell dose transplanted (FIG. 2D). […]"}, "[4]": {"test_system": "human progenitor/stem cells", "conditions": "literature report; cited from earlier work"}, "murine AHR": {"target": "T1, murine AHR (Mus musculus, UniProt P30561)", "T1 sequence (P30561 10-848)": "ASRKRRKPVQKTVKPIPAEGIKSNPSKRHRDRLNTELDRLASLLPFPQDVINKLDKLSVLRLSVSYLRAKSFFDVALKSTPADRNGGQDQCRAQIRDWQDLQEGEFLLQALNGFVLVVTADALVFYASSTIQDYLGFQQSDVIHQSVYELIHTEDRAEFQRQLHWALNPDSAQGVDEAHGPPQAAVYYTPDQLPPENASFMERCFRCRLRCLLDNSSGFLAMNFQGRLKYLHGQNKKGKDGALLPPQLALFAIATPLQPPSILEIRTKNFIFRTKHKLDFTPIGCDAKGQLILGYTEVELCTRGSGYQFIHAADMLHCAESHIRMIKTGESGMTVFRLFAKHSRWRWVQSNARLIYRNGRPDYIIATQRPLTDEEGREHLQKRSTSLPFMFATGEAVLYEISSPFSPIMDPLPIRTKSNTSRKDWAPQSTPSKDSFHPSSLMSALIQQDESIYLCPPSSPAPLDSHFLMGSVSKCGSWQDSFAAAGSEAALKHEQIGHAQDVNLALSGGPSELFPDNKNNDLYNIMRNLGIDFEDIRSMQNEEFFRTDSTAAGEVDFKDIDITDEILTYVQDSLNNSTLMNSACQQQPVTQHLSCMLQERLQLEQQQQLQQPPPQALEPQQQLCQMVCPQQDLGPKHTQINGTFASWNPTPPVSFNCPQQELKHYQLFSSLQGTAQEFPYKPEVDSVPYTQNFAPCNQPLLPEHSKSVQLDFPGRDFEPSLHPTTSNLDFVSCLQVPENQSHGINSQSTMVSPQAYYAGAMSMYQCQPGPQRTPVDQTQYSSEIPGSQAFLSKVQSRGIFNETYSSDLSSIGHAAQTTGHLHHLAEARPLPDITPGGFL", "conditions": "literature report; cited from earlier work"}, "murine HSCs": {"test_system": "murine HSCs", "conditions": "literature report; cited from earlier work"}, "[5]": {"conditions": "purified HSCs treated 15 min, compared to DMSO control"}},
  "note": "Where two headings read alike, the source gives them in different places.",
  "data": [
    {"smiles": "N#CC(C#N)=NNc1ccc(OC(F)(F)F)cc1", "note": "[FCCP]", "values": [
      {"measurement": "Cai^2+ of HSCs at higher doses", "setting": "HSCs [1]; higher doses of the mitochondrial inhibitors, 15 min", "result": "further reduction"},
      {"measurement": "Cai^2+ of HSCs", "setting": "HSCs [1]; [5]", "result": "not inhibition of mitochondrial respiration increased"}
    ]},
    {"smiles": "Cc1ccc(N(CC(=O)O)CC(=O)O)c(OCCOc2cc(-c3cc4ccc(C(=O)O)cc4[nH]3)ccc2N(CC(=O)O)CC(=O)O)c1", "note": "[Indo-1]", "values": [
      {"measurement": "Kd", "setting": "[2]", "result": 237, "unit": "nM"}
    ]},
    {"smiles": "O=C(O)/C(S)=C/c1ccc(I)cc1", "note": "[PD150606, (Z)-3-(4-Iodophenyl)-2-mercapto-2-propenoic acid]", "values": [
      {"measurement": "competitive repopulation capacity", "setting": "HSCs [3]; PD150606 25 μM added to high calcium (2.0 mM) 2-week HSC cultures", "result": "increased competitive repopulation capacity"},
      {"measurement": "competitive repopulation capacity", "setting": "HSCs [3]; PD150606 25 μM added to low calcium (0.02 mM) 2-week HSC cultures", "result": "no effect"}
    ]},
    {"smiles": "CC(C)n1cnc2c(NCCc3ccc(O)cc3)nc(-c3csc4ccccc34)nc21", "note": "[SR1, stemregenin 1]", "values": [
      {"measurement": "expansion of human progenitor/stem cells capable of repopulating irradiated immunodeficient mice", "setting": "[4]", "result": "led to expansion"},
      {"measurement": "inhibition of murine AHR", "setting": "murine AHR", "result": "does not inhibit"},
      {"measurement": "expansion of murine HSCs", "setting": "murine HSCs", "result": "does not lead to expansion"}
    ]},
    {"smiles": "O=C(O)CI", "note": "[iodoacetic acid]", "values": [
      {"measurement": "Cai^2+ of HSCs", "setting": "HSCs [1]", "result": "increased"}
    ]},
    {"smiles": "CC[C@H]1/C=C/C=C/C[C@@H](C)[C@H](O)[C@@](C)(O)C(=O)[C@@H](C)[C@H](O)[C@@H](C)C(=O)[C@@H](C)[C@H](O)[C@@H](C)/C=C/C(=O)O[C@@H]2[C@H](C)[C@H](CC1)O[C@]1(CC[C@H](C)[C@H](C[C@@H](C)O)O1)[C@H]2C", "note": "[oligomycin]", "values": [
      {"measurement": "Cai^2+ of HSCs", "setting": "HSCs [1]; [5]", "result": "not inhibition of mitochondrial respiration increased"}
    ]}
  ]
}
